Data published in article PMC6792352, “Limited Chemical Structural Diversity Found to Modulate Thyroid Hormone Receptor in the Tox21 Chemical Library” (Environmental Health Perspectives, 2019).
Where a name gives a salt, the structure may show the parent alone. Residues, ends and D or L forms follow the SMILES beside them.

Experiment: in vitro
Details: rat, gh3-tre-luc cells

SMILES	CC50 at 24 h (AC50 (uM) modified / 1000)	further results
Cc1c(C(=O)c2c[nH]n(C)c2=O)ccc(S(C)(=O)=O)c1C1=NOCC1 [Topramezone]	> 40 µM	–
O=[N+]([O-])c1ccc(F)cc1F [2,4-Difluoronitrobenzene]	> 90 µM	–
COC(=O)/C=C\C(=O)OC [Dimethyl maleate]	> 90 µM	–
O=C(c1ccc(O)cc1)c1ccc(O)cc1 [4,4'-Dihydoxybenzophenone]	> 90 µM	–
CCCCc1ccc2ccccc2c1S(=O)(=O)O [Butylnaphthalenesulfonic acid sodium salt]	> 90 µM	–
COCC(C)N(C(=O)CCl)c1c(C)csc1C (stereo not drawn) [Dimethenamid]	> 90 µM	–
C=CC(=O)OCCCCO [4-Hydroxybutyl prop-2-enoate]	–	CC50 at 24 h (AC50 (uM) modified / 1000, Tox21_110001=Tox21_302651, viability, 1 nM T3 present, 24 h): 73.9 µM
N[C@@H](CCC(=O)O)C(=O)O [L-Glutamic acid hydrochloride]	> 90 µM	–
Cc1cc(O)cc(C)c1Cl [4-Chloro-3,5-dimethylphenol]	> 90 µM	–
CCCCCCCCCCCCCC[P+](CCCCCC)(CCCCCC)CCCCCC [Trihexyltetradecylphosphonium chloride]	5.15 µM	–
CCCC[N+]1(C)CCCC1 [1-Butyl-1-methylpyrrolidinium hexafluorophosphate]	> 90 µM	–
CCOC(=O)Cn1cccc1-c1nc(-c2ccc(OC)cc2)c(-c2ccc(OC)cc2)s1 [Pamicogrel]	> 50 µM	–
COc1ccc([C@@H]2CC(=O)c3c(O)cc(O[C@@H]4O[C@H](CO[C@@H]5O[C@@H](C)[C@H](O)[C@@H](O)[C@H]5O)[C@@H](O)[C@H](O)[C@H]4O)cc3O2)cc1OC [Methyl hesperidin]	> 90 µM	–
CC(C)(CO)[C@@H](O)C(=O)NCCCO [Dexpanthenol]	> 50 µM	–
CN(C)C(=O)C1(N2CCCCC2)CCN(CC[C@@]2(c3ccc(Cl)c(Cl)c3)CN(C(=O)c3ccccc3)CCO2)CC1 [SSR 241586 HCl]	4.07 µM	–
CCOC(=O)C(=O)OCC [Diethyl oxalate]	> 90 µM	–
CC(CCC(=O)O)(c1ccc(O)cc1)c1ccc(O)cc1 [Diphenolic acid]	> 90 µM	–
O=C(Oc1ccccc1C(=O)O)c1ccccc1O [Salsalate]	> 50 µM	–
Cc1cccc(NC(=S)N(C)C)c1 [Methiuron]	> 90 µM	–
COc1ccc(-c2cc(=S)ss2)cc1 [Anethole trithione]	> 50 µM	–
NCCCC[C@H](N[C@@H](CCc1ccccc1)C(=O)O)C(=O)N1CCC[C@H]1C(=O)O [Lisinopril dihydrate]	> 20 µM	–

SMILES	CC50 at 24 h (AC50 (uM) modified / 1000)	further results
CC(C)[N+](C)(CCOC(=O)C1c2ccccc2Oc2ccccc21)C(C)C [Propantheline bromide]	> 90 µM	–
COC(=O)NS(=O)(=O)c1ccc(N)cc1 [Asulam]	> 90 µM	–
CCc1ccc(S(=O)(=O)O)cc1 [4-Ethylbenzenesulfonic acid]	> 50 µM	–
CCCOCC(C)O (stereo not drawn) [1-Propoxy-2-propanol]	> 90 µM	–
CSC(=O)c1c(C(F)F)nc(C(F)(F)F)c(C(=O)SC)c1CC(C)C [Dithiopyr]	57.6 µM	–
CC(C)=CCOc1c2occc2cc2ccc(=O)oc12 [Imperatorin]	> 50 µM	–
Cc1cc2c3c(c1)C(c1ccccc1)=N[C@@H](NC(=O)c1ccncc1)C(=O)N3CC2 [CI-1018]	> 90 µM	–
CC(C)c1ccc2c(c1)CC[C@H]1[C@](C)(CN)CCC[C@]21C [Dehydroabietylamine acetate]	10.1 µM	–
CC(C)[C@H]1CC[C@H](C)C[C@@H]1O [(1S,2R,5S)-(+)-Menthol]	> 90 µM	–
CCC(C)OC(C)CC (stereo not drawn) [Bis(2-butyl) ether]	> 100 µM	–
CCCCc1ccc(C(=O)O)nc1 [Fusaric acid]	–	CC50 at 24 h (AC50 (uM) modified / 1000, Tox21_110001=Tox21_110149, viability, 1 nM T3 present, 24 h): > 50 µM
COCCOCCOCCOC [Triethylene glycol dimethyl ether]	> 90 µM	–
CN(C)CC[C@@H](c1ccc(Cl)cc1)c1ccccn1 [Dexchlorpheniramine hydrochloride]	24.8 µM	–
O=C=NC1CCCCC1 [Isocyanatocyclohexane]	–	CC50 at 24 h (AC50 (uM) modified / 1000, Tox21_110001=Tox21_200234, viability, 1 nM T3 present, 24 h): > 90 µM
C=C(C)C(=O)OCCOCCOCCOCCOC(=O)C(=C)C [Tetraethyleneglycol dimethacrylate]	> 90 µM	–
CCCCCCCCCC(=O)O [Decanoic acid]	> 50 µM	–
CCC(C)(C)C1CCC(OC)CC1 (stereo not drawn) [1-Methoxy-4-tert-pentylcyclohexane]	> 90 µM	–
CCOC(=O)[C@H](CCc1ccccc1)N[C@@H](C)C(=O)N1[C@H](C(=O)O)C[C@H]2CCCC[C@@H]21 [Trandolapril]	> 50 µM	–
CC(=O)Oc1cc2c(s1)CCN(C(C(=O)C1CC1)c1ccccc1F)C2 (stereo not drawn) [Prasugrel hydrochloride]	> 50 µM	–
NC(=O)c1ccc(N)cc1 [4-Aminobenzamide]	> 90 µM	–
CC(C)CCOCc1ccccc1 [Benzyl 3-methylbutyl ether]	> 90 µM	–

SMILES	CC50 at 24 h (AC50 (uM) modified / 1000)	further results
COc1ccccc1NC(=O)c1cc2ccccc2cc1O [3-Hydroxy-2-naphthoic o-anisidide]	> 90 µM	–
CO[C@H]1C[C@H](O[C@@H]2/C(C)=C/C[C@@H]3C[C@@H](C[C@]4(CC[C@H](C)[C@@H](C5CCCCC5)O4)O3)OC(=O)[C@@H]3C=C(C)/C(=N/O)[C@H]4OC/C(=C\C=C\[C@@H]2C)[C@]43O)O[C@@H](C)[C@@H]1O [Selamectin]	33.2 µM	–
C[C@]12CC[C@@H]3c4ccc(OS(=O)(=O)O)cc4CC[C@H]3[C@@H]1CCC2=O [Estropipate]	> 50 µM	–
CCn1cc(C(=O)O)c(=O)c2cc(F)c(N3CCNCC3)nc21 [Enoxacin]	> 20 µM	–
CO[C@@H]1[C@@H](O[C@@H]2O[C@H](C)[C@@H](O[C@H]3C[C@@](C)(O)[C@@H](OC(=O)CC(C)C)[C@H](C)O3)[C@H](N(C)C)[C@H]2O)[C@@H](CC=O)C[C@@H](C)[C@@H](O)/C=C/C=C/C[C@@H](C)OC(=O)C[C@H]1OC(C)=O [Josamycin]	> 20 µM	–
CC1(C)S[C@@H]2[C@H](N)C(=O)N2[C@H]1C(=O)O [6-Aminopenicillanic acid]	> 20 µM	–
CC(=O)c1ccc(O)cc1 [4-Hydroxyacetophenone]	> 90 µM	–
C#CCOC(=O)[C@@H](C)Oc1ccc(Oc2ncc(Cl)cc2F)cc1 [Clodinafop-propargyl]	> 90 µM	–
Cc1ccc(C)c([N+](=O)[O-])c1 [1,4-Dimethyl-2-nitrobenzene]	> 90 µM	–
OCC1(CO)COCOC1 [1,3-Dioxane-5,5-diyldimethanol]	> 90 µM	–
C[C@@H]1CC[C@@]2(OC1)O[C@H]1[C@@H](O)[C@H]3[C@@H]4CC[C@H]5C[C@@H](O[C@@H]6O[C@H](CO)[C@H](O[C@@H]7O[C@H](CO)[C@@H](O)[C@H](O[C@@H]8OC[C@@H](O)[C@H](O)[C@H]8O)[C@H]7O[C@@H]7O[C@H](CO)[C@H](O)[C@H](O[C@@H]8O[C@H](CO)[C@@H](O)[C@H](O)[C@H]8O)[C@H]7O)[C@H](O)[C@H]6O)[C@H](O)C[C@]5(C)[C@H]4CC[C@]3(C)[C@H]1[C@@H]2C [Digitonin]	1.67 µM	–
C[C@@H](N)C(=O)c1ccccc1 [(R)-(+)-Cathinone hydrochloride]	> 100 µM	–
CC(C)=CCC/C(C)=C/C=C/C(C)=C/C=C/C(C)=C/C=C/C=C(C)/C=C/C=C(C)/C=C/C=C(\C)CCC=C(C)C [Lycopene]	> 50 µM	–
CC1CCCNC1 (stereo not drawn) [3-Methylpiperidine]	> 90 µM	–
C=CC(C)(CCC=C(C)C)OC(C)=O (stereo not drawn) [Linalyl acetate]	> 90 µM	–
O=C(Oc1ccccc1)c1cccc(C(=O)Oc2ccccc2)c1 [Diphenyl isophthalate]	> 100 µM	–
CC(CN)CCCN (stereo not drawn)	> 90 µM	–
CCCCCCCCCCCCCCCC(=O)OC [Methyl hexadecanoate]	> 30 µM	–
Cc1ccc2nc(N)[nH]c(=O)c2c1Sc1ccncc1 [Nolatrexed dihydrochloride]	> 50 µM	–
Oc1cccc(O)c1 [Resorcinol]	> 90 µM	–
COC(=O)COc1ccc(Cl)cc1Cl [2,4-D-methyl]	> 90 µM	–

SMILES	CC50 at 24 h (AC50 (uM) modified / 1000)	further results
CC(S)C(=O)NCC(=O)O (stereo not drawn) [Tiopronin]	> 50 µM	–
CCOC(=O)CCc1ccccc1 [Ethyl hydrocinnamate]	> 90 µM	–
C=CCSCC1Nc2cc(Cl)c(S(N)(=O)=O)cc2S(=O)(=O)N1 (stereo not drawn) [Althiazide]	> 50 µM	–
CCCCCCCCCCCCNC(=N)N [Dodine]	> 4 µM	–
Nc1ccncc1 [4-Aminopyridine]	> 90 µM	–
O=[N+]([O-])c1ccc(Cl)c(Cl)c1 [3,4-Dichloronitrobenzene]	–	CC50 at 24 h (AC50 (uM) modified / 1000, Tox21_110001=Tox21_201613, viability, 1 nM T3 present, 24 h): > 90 µM
COC(=O)N[C@H](C(=O)N[C@@H](Cc1ccccc1)[C@@H](O)CN(Cc1ccc(-c2ccccn2)cc1)NC(=O)[C@@H](NC(=O)OC)C(C)(C)C)C(C)(C)C [Atazanavir]	> 50 µM	–
CCCCC[C@H](O)/C=C/[C@H]1[C@H](O)CC(=O)[C@@H]1C/C=C\CCCC(=O)O [Dinoprostone]	> 50 µM	–
COc1ccc(N=Nc2cc(C)c(N=Nc3ccc(S(=O)(=O)O)cc3)cc2OC)cc1 [Acid Orange 156]	64.4 µM	–
O=C1C(=O)c2ncccc2-c2cccnc21 [Phanquinone]	1.78 µM	–
CCCCC(CC)COC(=O)CCCCC(=O)OCC(CC)CCCC (stereo not drawn) [Bis(2-ethylhexyl)hexanedioate]	> 90 µM	–
Nc1ccc(S(=O)(=O)NC(=O)c2ccccc2)cc1 [Sulfabenzamide]	> 20 µM	–
COC(=O)[C@H](Cc1ccccc1)NC(=O)[C@@H](N)CC(=O)O [Aspartame] (H-Asp-Phe-OMe)	> 90 µM	–
Cc1ccc(O)c([C@H](CCN(C(C)C)C(C)C)c2ccccc2)c1 [Tolterodine]	18.9 µM	–
CC1=NN(c2ccccc2)C(=O)C1 [1-Phenyl-3-methyl-5-pyrazolone]	> 90 µM	–
C=CC(O)CCCCC (stereo not drawn) [1-Octen-3-ol]	> 90 µM	–
SCCOCCOCCS [2,2'-[Ethane-1,2-diylbis(oxy)]diethanethiol]	> 90 µM	–
OC[C@@H](O)[C@H](O)[C@@H](O)[C@@H](O)CO [L-Glucitol]	> 90 µM	–
